Assay [1] relates to N. gonorrhoeae strains FA1090, WHO K, WHO P, WHO X. Put plainly: Antibiotic MIC with peptide cotreatment, summarised over the strains tested. The format is cell-based, Neisseria gonorrhoeae. Conditions: for Reduction of the MICs of the four antibiotics tested on cotreatment: for at least one N. gonorrhoeae strain. The method, then:
(§1) Six peptides were tested against N. gonorrhoeae strains with various antimicrobial resistance phenotypes and with either standard MtrCDE expression (strain FA1090) or MtrCDE overexpression (strains WHO K, WHO P, and WHO X [15, 16]) (Table 2). […] Subsequent experiments were conducted with subinhibitory peptide concentrations (20 μg/ml for FA1090; 50 μg/ml for WHO K, WHO P, and WHO X).
(§2) Experiments were performed using a microdilution method in triplicate wells.
(§3) High-level resistance, resistance, intermediate resistance, and susceptibility phenotypes were determined per previously determined MIC values ([15]) using the interpretive criteria published by the Swedish Reference Group on Antibiotics (SGRA) ([25]). For cotreatment assays (peptide plus antibiotic), the antibiotic dilutions were made up in GC broth that contained the peptide at the appropriate concentration. The experiments were performed with peptide-only and antibiotic-only controls. Each well was inoculated with 10 μl of the appropriate N. gonorrhoeae strain at an optical density (absorbance at 600 nm) of 0.1 (∼1 × 10^6 CFU/ml). All experiments were performed with triplicate samples on at least three occasions.

The subject of assay [2] is N. gonorrhoeae strain WHO X (MtrCDE overexpression). Put plainly: microbe, parasite or virus in culture. Format: cell-based, Neisseria gonorrhoeae. Conditions: for MIC: Neisseria gonorrhoeae, 20 h. The method, then: as §1, §2, §3
The test system of assay [3] is N. gonorrhoeae strain WHO P (MtrCDE overexpression). Put plainly: microbe, parasite or virus in culture. The conditions noted are these: for MIC: Neisseria gonorrhoeae, 20 h; for Reduction of azithromycin MIC compared with that for MtrCDE knockout versus wild-type strains: 50 μg/ml peptide, knockout comparison from ref 6; for Antimicrobial resistance phenotype, AZM, in the presence of peptide: cotreatment with 50 μg/ml peptide, EUCAST breakpoints. The format is cell-based, Neisseria gonorrhoeae. Here is the method:
as §1, §2, §3

Assay [4] has as its system N. gonorrhoeae strain WHO K (MtrCDE overexpression). Put plainly: microbe, parasite or virus in culture. Format: cell-based, Neisseria gonorrhoeae. The conditions noted are these: for MIC: Neisseria gonorrhoeae, 20 h. The method, then: as §1, §2
[…] For cotreatment assays (peptide plus antibiotic), the antibiotic dilutions were made up in GC broth that contained the peptide at the appropriate concentration. The experiments were performed with peptide-only and antibiotic-only controls. Each well was inoculated with 10 μl of the appropriate N. gonorrhoeae strain at an optical density (absorbance at 600 nm) of 0.1 (∼1 × 10^6 CFU/ml). All experiments were performed with triplicate samples on at least three occasions.

Assay [5] has as its system N. gonorrhoeae strain FA1090 (standard MtrCDE expression). Put plainly: MIC, broth microdilution (CLSI), antibiotic alone, peptide alone or peptide cotreatment. Format: cell-based. Conditions: Neisseria gonorrhoeae. Here is the method: as §1, §2, §3
On the technique in general: In broth dilution the organism is exposed to a series of concentrations in liquid medium.

Assay [6] relates to N. gonorrhoeae strain WHO P ΔmtrE. Put plainly: Antibiotic MIC with or without P-MtrE1, mtrE knockout strain. The format is cell-based, Neisseria gonorrhoeae. Here is the method: (§4) N. gonorrhoeae strains used in this study include FA1090 (standard MtrCDE expression) ([22]), WHO K (MtrCDE overexpression) ([15]), WHO P (MtrCDE overexpression) ([15]), and WHO X (MtrCDE overexpression) ([16]). Wild-type strains were grown on GC agar or in GC broth (Oxoid) supplemented with IsoVitaleX (Bacto) at 37°C in 5% CO2. mtrE knockout strains of N. gonorrhoeae WHO X and WHO P (ΔmtrE) were generated by transforming bacteria with 1 μg of a linear DNA fragment (IDT) containing aminoglycoside 3′-phosphotransferase gene (NCBI accession no. VTT49712.1) flanked by 500-bp terminal fragments of the N. gonorrhoeae FA1090 mtrE gene (GenBank accession no. AE004969.1, positions 1 to 500 and 903 to 1403), as well as the gonococcal DNA uptake sequence ([…]) at the 5′ end ([23]). E. coli strain DH5α, used for cloning, was grown using Luria-Bertani agar or broth (Oxoid) at 37°C. The media were supplemented with 100 μg/ml ampicillin or 50 μg/ml kanamycin, as required.
as §2, §3

Assay [7] has as its system N. gonorrhoeae strain WHO X ΔmtrE. The assay is described as above. Format: cell-based, Neisseria gonorrhoeae. Here is the method:
as §4, §2, §3

The mark [8] stands for this setting: read-out: MIC of CRO (ceftriaxone).
[9] abbreviates: WHO K, antibiotic alone, EUCAST breakpoints.
[10] abbreviates: read-out: MIC of AZM (azithromycin).
The mark [11] stands for this setting: read-out: MIC of ERY (erythromycin).
[12] abbreviates: gentamicin is not subject to efflux by MtrCDE.
Setting [13] is: presence or absence of subinhibitory P-MtrE1 concentrations (0 or 6.5 μg/ml, Fig. 2).

Where two headings read alike, the source gives them in different places. A value given as a limit tells only on which side of the number the result lay.

Take HLSLIATV [P-MtrE1a]: in assay [1] (control peptides, any strain against which P-MtrE1 had an effect), the “Effect of peptide on susceptibility to the antibiotics tested” value is given as “not able to increase susceptibility to any antibiotic”.

Consider “(KFF)3KGSGVFLVPLFY [P-MtrD1, self-derived peptide, 8 amino acids of MtrD fused to (KFF)3K cell-permeating peptide and GSG linker]”, for which the “Reduction of the MICs of the four antibiotics tested on cotreatment” value (“Reduction of the MICs … on cotreatment” for short) in assay [1] is recorded as “at least 2 fold”.

As to `CO/N=C(\C(=O)N[C@@H]1C(=O)N2C(C(=O)O)=C(CSc3nc(=O)c(=O)[nH]n3C)CS[C@H]12)c1csc(N)n1` [CRO, ceftriaxone], the MIC in assay [2] (setting [8]) is 2 µg/mL; in assay [3] (setting [8]), 0.004 µg/mL; in assay [4] (setting [8]) it was 0.031 µg/mL; in assay [5] (read-out: MIC of CRO (ceftriaxone), antibiotic alone, microdilution per CLSI, GC broth, 20 h, triplicate wells), below 0.0078 µg/mL. The “Antimicrobial resistance phenotype, CRO” value in assay [4] (setting [9]) is reported as “S (S ≤ 0.125)”.

For the compound “(KFF)3KGSGDAAHLSLIATVAKAYFNERY [P-MtrE2, self-derived peptide, 20 amino acids of MtrE fused to (KFF)3K cell-permeating peptide and GSG linker]”, in assay [1], the “Reduction of the MICs … on cotreatment” value is “at least 2 fold”.

For the compound `CC[C@H]1OC(=O)[C@H](C)[C@@H](O[C@H]2C[C@@](C)(OC)[C@@H](O)[C@H](C)O2)[C@H](C)[C@@H](O[C@@H]2O[C@H](C)C[C@H](N(C)C)[C@H]2O)[C@](C)(O)C[C@@H](C)CN(C)[C@H](C)[C@@H](O)[C@]1(C)O` [AZM, azithromycin], the MIC turned out to be 0.5 µg/mL in assay [2] (setting [10]); 4 µg/mL in assay [3] (setting [10]); 0.25 µg/mL in assay [4] (setting [10]); 0.063 µg/mL in assay [5] (read-out: MIC of AZM (azithromycin), antibiotic alone, microdilution per CLSI, GC broth, 20 h, triplicate wells). In assay [4] (setting [9]), the “Antimicrobial resistance phenotype, AZM” value was “S (S ≤ 0.25)”.

Take `CC[C@H]1OC(=O)[C@H](C)[C@@H](O[C@H]2C[C@@](C)(OC)[C@@H](O)[C@H](C)O2)[C@H](C)[C@@H](O[C@@H]2O[C@H](C)C[C@H](N(C)C)[C@H]2O)[C@](C)(O)C[C@@H](C)C(=O)[C@H](C)[C@@H](O)[C@]1(C)O` [ERY, erythromycin, reference compound]: the MIC in assay [2] (setting [11]) turned out to be 2 µg/mL; in assay [3] (setting [11]) it was 16 µg/mL; in assay [5] (antibiotic alone, microdilution per CLSI, GC broth, 20 h, triplicate wells, read-out: MIC of ERY (erythromycin)), 0.2 µg/mL.

On to “(KFF)3KGSG HLSLIATV [P-MtrE1, self-derived peptide, 8 amino acids of MtrE fused to (KFF)3K cell-permeating peptide and GSG linker]”, for which the “Impact of peptide on susceptibility to gentamicin” value in assay [6] (setting [12]) was “no impact”; in assay [7] (setting [12]), “no impact”; in assay [2] (WHO X wild-type, gentamicin is not subject to efflux by MtrCDE), “no impact”; in assay [3] (WHO P wild-type, gentamicin is not subject to efflux by MtrCDE), “no impact”. Besides, in assay [6] (setting [13]), the “Change in antibiotic susceptibility to erythromycin or azithromycin with peptide” value is “no change”. Also, the “Change in antibiotic susceptibility to ciprofloxacin or ceftriaxone with peptide” value in assay [7] (setting [13]) is “no change”. Moreover, the “Reduction of ciprofloxacin and ceftriaxone MICs compared with that between MtrCDE knockout and wild-type strains” value in assay [2] (WHO X, 50 μg/ml peptide, knockout comparison from ref 6) is “same magnitude”. Besides, the “Peptide concentration able to reduce the MICs of ciprofloxacin and ceftriaxone” value in assay [2] (WHO X, concentrations as low as) was at most 6.25 µg/mL. The “Reduction of azithromycin MIC compared with that for MtrCDE knockout versus wild-type strains” value in assay [3] (WHO P) is on record as “same magnitude”. For the same compound, in assay [3] (WHO P, concentrations as low as), the “Peptide concentration able to reduce the MICs of erythromycin and azithromycin” value is at most 6.25 µg/mL. The “Antimicrobial resistance phenotype, AZM, in the presence of peptide” value in assay [3] (WHO P) is reported as “S (S ≤ 0.25)”. For the same compound, the “Reduction of the MICs … on cotreatment” value in assay [1] is listed as “at least 2 fold”.

Turning to “(KFF)3KGSGVMKLRRQI [P-MtrC1, self-derived peptide, 8 amino acids of MtrC fused to (KFF)3K cell-permeating peptide and GSG linker]”, in assay [3] (WHO P), the “Reduction of azithromycin MIC compared with that for MtrCDE knockout versus wild-type strains” value was “same magnitude” and the “Antimicrobial resistance phenotype, AZM, in the presence of peptide” value is listed as “I”. Further, the “Reduction of the MICs … on cotreatment” value in assay [1] is recorded as “at least 2 fold”.

These data come from paper PMC8765275, “Self-Inhibitory Peptides Targeting the Neisseria gonorrhoeae MtrCDE Efflux Pump Increase Antibiotic Susceptibility” (Antimicrobial Agents and Chemotherapy, 2022).
